This assay concerns L1210 leukemia ip in BDF1 mice, survival T/C. In words: NCI In Vivo Anticancer Drug Screen. Data for tumor model L1210 Leukemia (intraperitoneal) in B6D2F1 (BDF1) mice. As to conditions: endpoint: mean survival time, higher = longer survival. Summed up: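 Survival endpoint. Drug-treated group vs vehicle group, expressed as T divided by C. Tumor passaged by transplantation.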
[1] abbreviates: dose: 100.0 mg/kg/injection, schedule: Q01DX009 (ip), vehicle: Klucel (hydroxypropylcellulose) (HPC).
[2] abbreviates: dose: 100.0 mg/kg/injection, schedule: Q04DX003 (ip), vehicle: Klucel (hydroxypropylcellulose) (HPC).
Setting [3] is: dose: 200.0 mg/kg/injection, schedule: Q01DX009 (ip), vehicle: Klucel (hydroxypropylcellulose) (HPC).
The mark [4] stands for this setting: dose: 200.0 mg/kg/injection, schedule: Q04DX003 (ip), vehicle: Klucel (hydroxypropylcellulose) (HPC).
Where [5] appears, read: dose: 400.0 mg/kg/injection, schedule: Q04DX003 (ip), vehicle: Klucel (hydroxypropylcellulose) (HPC).
Where [6] appears, read: dose: 100.0 mg/kg/injection, schedule: Q04DX002 (ip), vehicle: saline.
[7] abbreviates: dose: 200.0 mg/kg/injection, schedule: Q04DX002 (ip), vehicle: saline.
Setting [8] is: dose: 400.0 mg/kg/injection, schedule: Q04DX002 (ip), vehicle: saline.
The mark [9] stands for this setting: dose: 100.0 mg/kg/injection, schedule: Q04DX002 (ip), vehicle: saline with Tween-80.
[10] abbreviates: dose: 200.0 mg/kg/injection, schedule: Q04DX002 (ip), vehicle: saline with Tween-80.
The mark [11] stands for this setting: dose: 400.0 mg/kg/injection, schedule: Q04DX002 (ip), vehicle: saline with Tween-80.
[12] abbreviates: dose: 100.0 mg/kg/injection, schedule: Q04DX002 (ip), vehicle: Klucel (hydroxypropylcellulose) (HPC).
[13] abbreviates: dose: 200.0 mg/kg/injection, schedule: Q04DX002 (ip), vehicle: Klucel (hydroxypropylcellulose) (HPC).
The mark [14] stands for this setting: dose: 400.0 mg/kg/injection, schedule: Q04DX002 (ip), vehicle: Klucel (hydroxypropylcellulose) (HPC).
[15] abbreviates: dose: 100.0 mg/kg/injection, schedule: Q01DX009 (ip), vehicle: saline with Tween-80.
The mark [16] stands for this setting: dose: 400.0 mg/kg/injection, schedule: Q01DX009 (ip), vehicle: saline with Tween-80.

Several values for one entry are separate records, joined by “and”; a condition that tells them apart may be missing. Equal values may be shown once. Toxic doses and inconclusive results are not listed.

Turning to `CC(Cl)(/N=N\C(C)(Cl)c1ccc(Cl)cc1)c1ccc(Cl)cc1` (stereo not given), the T/C (dose: 100.0 mg/kg/injection, schedule: Q01DX001 (ip), vehicle: Klucel (hydroxypropylcellulose) (HPC)) was 96 % of control; the T/C under setting [1] was 92 % of control; the T/C under setting [2] is 103 % of control; the T/C (dose: 200.0 mg/kg/injection, schedule: Q01DX001 (ip), vehicle: Klucel (hydroxypropylcellulose) (HPC)) was 92 % of control; the T/C under setting [3] was 106 % of control; the T/C under setting [4] was 103 % of control. For the same compound, the T/C by setting is: (dose: 400.0 mg/kg/injection, schedule: Q01DX001 (ip), vehicle: Klucel (hydroxypropylcellulose) (HPC)) 96 % of control; (dose: 400.0 mg/kg/injection, schedule: Q01DX009 (ip), vehicle: Klucel (hydroxypropylcellulose) (HPC)) 98 % of control; under setting [5], 93 % of control.

As for `CCc1nc(N)nc(N)c1-c1ccc(N(CCCl)CCCl)cc1`, the T/C reads like this: (dose: 13.0 mg/kg/injection, schedule: Q01DX Z (ip), vehicle: methylcellulose (MC)) 108 % of control; (dose: 20.0 mg/kg/injection, schedule: Q01DX Z (ip), vehicle: methylcellulose (MC)) 103 % of control; (dose: 30.0 mg/kg/injection, schedule: Q01DX Z (ip), vehicle: methylcellulose (MC)) 108 % of control; (dose: 45.0 mg/kg/injection, schedule: Q01DX Z (ip), vehicle: methylcellulose (MC)) 113 % of control.

With `Nc1cc(=O)[nH]c(=S)[nH]1`, the T/C under setting [6] is 99 % of control, the T/C under setting [7] was 92 % of control and the T/C under setting [8] is 101 % of control.

As to `CCCCOP(=S)(N1CCCCC1)N1CCCCC1`, the T/C is, setting by setting: under setting [9], 96 % of control; under setting [10], 96 % of control; under setting [11], 107 % of control.

Consider `O=C(O)C1(C(=O)O)CCC1c1ccccc1` (stereo not given), for which the T/C is 94 % of control (dose: 100.0 mg/kg/injection, schedule: Q01DX001 (ip), vehicle: saline); 113 % of control (dose: 200.0 mg/kg/injection, schedule: Q01DX001 (ip), vehicle: saline); 102 % of control (dose: 400.0 mg/kg/injection, schedule: Q01DX001 (ip), vehicle: saline).

For `NNC(N)=S`, the T/C was 109 % of control (dose: 3.13 mg/kg/injection, schedule: Q04DX003 (ip), vehicle: saline); 104 % of control and 103 % of control (dose: 6.25 mg/kg/injection, schedule: Q04DX003 (ip), vehicle: saline); 97 % of control and 100 % of control (dose: 12.5 mg/kg/injection, schedule: Q04DX003 (ip), vehicle: saline).

Regarding `CCOc1ccccc1NC(=S)NC1CCCCC1`, the T/C by setting is: under setting [1], 97 % of control; under setting [3], 100 % of control.

With `COC(=O)C1=CCC(C2(C)CO2)CC1` (stereo not given), the T/C is, setting by setting: under setting [2], 104 % of control; under setting [4], 109 % of control; under setting [5], 104 % of control.

As to `O=C1c2ccccc2-c2nc3ncccc3nc21`, the T/C is, setting by setting: under setting [2], 101 % of control; under setting [4], 98 % of control; under setting [5], 98 % of control.

`OC1C2CC3CC(C2)CC1C3` (stereo not given): the T/C under setting [12] is 102 % of control, the T/C under setting [13] is 98 % of control and the T/C under setting [14] was 94 % of control.

For `CCCCCC(=O)N1CC(C)OC(C)C1` (stereo not given), the T/C is 94 % of control under setting [12], 97 % of control under setting [13] and 87 % of control under setting [14].

In the case of `CN(CCO)N=Nc1ccccc1C(N)=O`, the T/C by setting is: under setting [15], 117 % of control; (dose: 100.0 mg/kg/injection, schedule: Q04DX003 (ip), vehicle: saline with Tween-80) 105 % of control; (dose: 200.0 mg/kg/injection, schedule: Q04DX003 (ip), vehicle: saline with Tween-80) 110 % of control; under setting [16], 162 % of control and 177 % of control; (dose: 400.0 mg/kg/injection, schedule: Q04DX003 (ip), vehicle: saline with Tween-80) 104 % of control; (dose: 600.0 mg/kg/injection, schedule: Q01DX009 (ip), vehicle: saline with Tween-80) 176 % of control.

Take `CN(C)[C@@H]1C(=O)C(C(=O)NCNc2nc(=S)c3[nH]cnc3[nH]2)=C(O)[C@@]2(O)C(=O)C3=C(O)c4c(O)cccc4[C@@](C)(O)[C@H]3C[C@@H]12`: the T/C is, setting by setting: (dose: 75.0 mg/kg/injection, schedule: Q01DX Z (ip), vehicle: carboxymethylcellulose (CMC)) 119 % of control; (dose: 125.0 mg/kg/injection, schedule: Q01DX Z (ip), vehicle: carboxymethylcellulose (CMC)) 121 % of control; (dose: 250.0 mg/kg/injection, schedule: Q01DX Z (ip), vehicle: carboxymethylcellulose (CMC)) 95 % of control.

Regarding `COc1ccc(CCN=C(c2ccccc2)c2ccccc2)cc1OC`, the T/C runs as follows: (dose: 100.0 mg/kg/injection, schedule: Q04DX003 (ip), vehicle: saline) 94 % of control; (dose: 200.0 mg/kg/injection, schedule: Q04DX003 (ip), vehicle: saline) 94 % of control; (dose: 400.0 mg/kg/injection, schedule: Q04DX003 (ip), vehicle: saline) 97 % of control.

`O=NO.[Co].[NH2-].[NH2-].[NH2-].[NH2-].[NH2-]`: under “dose: 25.0 mg/kg/injection, schedule: Q04DX003 (ip), vehicle: saline”, the T/C is 101 % of control.

`CC(=O)NC(CO)C(O)C(O)C(O)CO` (stereo not given): the T/C by setting is: under setting [6], 101 % of control and 89 % of control; under setting [7], 93 % of control and 104 % of control; under setting [8], 93 % of control; (dose: 800.0 mg/kg/injection, schedule: Q04DX002 (ip), vehicle: saline) 93 % of control.

For the compound `Cc1cc2[nH]c(=O)c(=O)[nH]c2cc1C`, the T/C is 104 % of control (dose: 50.0 mg/kg/injection, schedule: Q04DX003 (ip), vehicle: Klucel (hydroxypropylcellulose) (HPC)); 105 % of control under setting [1]; 94 % of control under setting [2]; 100 % of control under setting [3]; 100 % of control under setting [4].

As for `COc1ccc(C(=O)Nc2cccc(C(F)(F)F)c2)cc1`, the T/C was 97 % of control (dose: 100.0 mg/kg/injection, schedule: Q01DX001 (ip), vehicle: saline with Tween-80); 100 % of control under setting [15]; 100 % of control and 105 % of control under setting [9]; 100 % of control (dose: 200.0 mg/kg/injection, schedule: Q01DX001 (ip), vehicle: saline with Tween-80); 121 % of control (dose: 200.0 mg/kg/injection, schedule: Q01DX009 (ip), vehicle: saline with Tween-80); 100 % of control and 108 % of control under setting [10]. Also, the T/C is, setting by setting: (dose: 400.0 mg/kg/injection, schedule: Q01DX001 (ip), vehicle: saline with Tween-80) 98 % of control; under setting [16], 118 % of control; under setting [11], 107 % of control and 90 % of control.

The record behind these values is PubChem BioAssay AID248 (DTP/NCI, 2004).
